Results taken from US7563818B2, “Photosensitizer functionalised nanoparticles” (Cancer Research Technology Limited, priority 2001, dated 2009).
Read-outs that look alike come from different tables or passages of the source.

Experiments:
[1] = Singlet oxygen quantum yield, method of Nonell and Braslavsky; assay type: physicochemical; details: for Increase in ΦΔ: addition of 1 mM TOAB to the free Pc
Protocol: Singlet oxygen quantum yields, ΦΔ, for both the free and bound Pc were determined (Table 1) using the method of Nonell and Braslavsky.^24 The Pc coated nanoparticles were referenced to perinapthenone in ethanol (ΦΔ=0.97)^25, whilst free Pc was referenced to perinapthenone and octa-decyl zinc phthalocyanine^17 in toluene (ΦΔ=1.0 and 0.7 respectively). After deoxygenation of the Pc samples no singlet oxygen could be detected. […] The value of ΦΔ of 0.45 for the free Pc in toluene is consistent with previous measurements of similar metallated Pcs.^26

[2] = Solubility in polar solvents; assay type: physicochemical; details: polar solvents (e.g. ethanol, methanol, DMSO)
Source text: Transmission electron micrographs of the Pc-gold nanoparticles are consistent with those reported by several groups for other thiol-stabilized MPCs in that they show small, 2-4 nm, non-aggregated particles—FIG. 2. […] A similar change in solubility was recently reported by Imahori et al.^23 for a porphyrin self-assembled on gold nanoparticles used as an artificial photosynthetic material.

[3] = Fluorescence lifetime by time-correlated single photon counting; assay type: physicochemical
Source text: Fluorescence lifetime (τ) measurements were obtained by using the method of time-correlated single photon counting. For both the free and bound phthalocyanine optimum fits (X2) were obtained for the double exponential and τ1 and τ2 values are shown in table 1.

[4] = cited from earlier work
[5] = double exponential fit, free Pc in toluene, Pc-nanoparticles in ethanol
[6] = in toluene with addition of 1 mM TOAB

| Molecule | Increase in ΦΔ [1] | Increase in ΦΔ ([1]; listed as free phthaloyanine) | φΔ singlet oxygen quantum yield ([1]; free Pc in toluene, Pc-nanoparticles in ethanol, referenced to perinapthenone (and octa-decyl zinc phthalocyanine for free Pc)) | Solubility in polar solvents [2] | τ1 (yield) [3, 5] [%] | τ1 fluorescence lifetime [3, 5] [ns] | τ2 (yield) [3, 5] [%] | τ2 fluorescence lifetime [3, 5] [ns] | τ1 (yield) [3, 6] [%] | τ1 fluorescence lifetime [3, 6] [ns] | τ2 (yield) [3, 6] [%] | τ2 fluorescence lifetime [3, 6] [ns] | ΦΔ singlet oxygen quantum yield of reference ([4]; in ethanol) | ΦΔ singlet oxygen quantum yield of reference ([4]; in toluene) |
| --- | --- | --- | --- | --- | --- | --- | --- | --- | --- | --- | --- | --- | --- | --- |
| CCCCCCc1ccc(CCCCCC)c2c1-c1nc3nc(nc4[nH]c(nc5[nH]c(nc-2n1)c1c(CCCCCC)ccc(CCCCCC)c51)c1c(CCCCCC)ccc(CCCCCC)c41)-c1c(C)ccc(CCCCCCCCCCCS)c1-3 [Free Pc, 1,4,8, 11, 15, 18-hexahexyl-22-(11-mercaptoundecyl)-25-methyl phthalocyanine] | ca. 10% | about 10% | 0.45 | insoluble | 91 | 2.1 | 9 | 1.11 | 76 | 0.7 | 24 | 1.7 |  |  |
| O=C1C=Cc2cccc3cccc1c23 [perinapthenone] |  |  |  |  |  |  |  |  |  |  |  |  | 0.97 | 1.0 |
| octa-decyl zinc phthalocyanine |  |  |  |  |  |  |  |  |  |  |  |  |  | 0.7 |
